Results on 29 compounds are retold here after ChEMBL document CHEMBL4818999, “Pyrido[2, 3-d]pyrimidin-7(8H)-ones as new selective orally bioavailable Threonine Tyrosine Kinase (TTK) inhibitors” (Eur J Med Chem, 2021).

Series [1] concerns the target T1, Dual specificity protein kinase TTK (Homo sapiens, UniProt P33981).
T1 sequence (P33981 whole entry): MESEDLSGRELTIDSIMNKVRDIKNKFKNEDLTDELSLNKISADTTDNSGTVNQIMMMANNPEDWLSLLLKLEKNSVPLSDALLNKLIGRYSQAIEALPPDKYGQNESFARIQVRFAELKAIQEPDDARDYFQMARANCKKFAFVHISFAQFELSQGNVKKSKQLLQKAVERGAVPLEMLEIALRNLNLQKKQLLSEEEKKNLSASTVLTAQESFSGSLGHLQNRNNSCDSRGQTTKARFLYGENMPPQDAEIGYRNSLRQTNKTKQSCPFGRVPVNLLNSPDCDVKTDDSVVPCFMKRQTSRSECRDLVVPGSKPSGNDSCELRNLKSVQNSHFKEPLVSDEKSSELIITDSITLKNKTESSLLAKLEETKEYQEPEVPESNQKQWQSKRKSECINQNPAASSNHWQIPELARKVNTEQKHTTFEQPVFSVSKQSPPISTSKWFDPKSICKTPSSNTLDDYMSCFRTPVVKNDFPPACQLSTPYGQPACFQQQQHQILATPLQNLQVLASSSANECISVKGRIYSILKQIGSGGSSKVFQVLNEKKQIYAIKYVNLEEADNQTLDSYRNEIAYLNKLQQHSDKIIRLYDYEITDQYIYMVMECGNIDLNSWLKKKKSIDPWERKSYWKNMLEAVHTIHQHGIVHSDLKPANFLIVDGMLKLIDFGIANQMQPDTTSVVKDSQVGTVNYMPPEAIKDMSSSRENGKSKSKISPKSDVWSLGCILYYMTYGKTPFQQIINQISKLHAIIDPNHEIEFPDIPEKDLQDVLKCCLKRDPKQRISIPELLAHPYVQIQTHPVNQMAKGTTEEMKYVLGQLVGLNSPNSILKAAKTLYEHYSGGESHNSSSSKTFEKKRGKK
Nature of the series: Binding affinity to wild-type human partial length TTK (N505 to V798 residues) expressed in bacterial expression system by active site-directed competition binding based Kinomescan method.

For the next series, the system named is HCT-116. Nature of the series: Antitumor activity at human HCT-116 cells xenografted in CB17-SCID mouse assessed as tumor growth inhibition at 20 mg/kg, ip administered once weekly for 16 days relative to control. The format is functional. The following applies: HCT-116, ip, 384 h, time 16 day, read-out: TGI. For orientation: In xenograft studies the graft and the host belong to different species.

The target of series [2] is T1, Dual specificity protein kinase TTK. Nature of the series: Inhibition of recombinant full-length human TTK using MBP as substrate incubated for 40 mins in presence of [gamma33P]ATP by scintillation counting based radiometry assay relative to control.
The nature of series [3]: AUC (0 to infinity) in Sprague-Dawley rat at 5 mg/kg, iv. The format is ADME, organism-based. The following applies: in vivo. Also noted: route intravenous, time infinity, dose 5 mg/kg.
The nature of series [4]: Cmax in Sprague-Dawley rat at 25 mg/kg, po. It is filed as ADME, organism-based. Also noted: route oral, dose 25 mg/kg. The following applies: in vivo.
Series [5] can be described thus: AUC (0 to infinity) in Sprague-Dawley rat at 25 mg/kg, po. The format is ADME, organism-based. On the set-up: time infinity, route oral, dose 25 mg/kg. The following applies: in vivo.
The nature of series [6]: Half life in Sprague-Dawley rat at 25 mg/kg, po. The format is ADME, organism-based. The following applies: in vivo.
The nature of series [7]: Oral bioavailability in Sprague-Dawley rat at 25 mg/kg. The format is ADME, organism-based. The following applies: in vivo.
Series [8] can be described thus: Half life in Sprague-Dawley rat at 5 mg/kg, iv. The format is ADME, organism-based. The following applies: in vivo.
Series [9] in a line: Cmax in Sprague-Dawley rat at 5 mg/kg, iv. Also noted: route intravenous, dose 5 mg/kg. The following applies: in vivo. It is filed as ADME, organism-based.
The nature of series [10]: Clearance in Sprague-Dawley rat at 5 mg/kg, iv. The format is ADME, organism-based. The following applies: in vivo.

Where only a bound is given, the exact number is not on record here.

Regarding `COc1cc(N2CCN(C)CC2)ccc1Nc1ncc2c(C)cc(=O)n([C@H]3CC[C@@H](NC(=O)C(C)(C)C)CC3)c2n1`, binding in series [1] was characterised by a dissociation constant (Kd) of 0.2 nM.
`CCC(=O)N[C@H]1CC[C@@H](n2c(=O)ccc3cnc(Nc4ccc(N5CCN(C)CC5)cc4OC)nc32)CC1`: in series [1], the affinity, expressed as Kd, was 0.41 nM.
The same measure, in the same setting: next, `CCC(=O)N[C@H]1CC[C@@H](n2c(=O)cc(C)c3cnc(Nc4ccc(N5CCN(C)CC5)c(OC)c4)nc32)CC1`: 4.2 nM.
On to `CC(=O)O[C@H]1C(=O)[C@@]2(C)[C@H]([C@H](OC(=O)c3ccccc3)[C@]3(O)C[C@H](OC(=O)[C@H](O)[C@@H](NC(=O)c4ccccc4)c4ccccc4)C(C)=C1C3(C)C)[C@]1(OC(C)=O)CO[C@@H]1C[C@@H]2O` [PACLITAXEL], for which the inhibition in vivo at 20 mg/kg in the series with HCT-116 is 52%.
Consider `COc1cc(N2CCN(C)CC2)ccc1Nc1ncc2c(C)cc(=O)n([C@H]3CC[C@@H](NCC4CC4)CC3)c2n1`, for which, in series [1], the Kd (in general, the constant that tells how readily two partners part at equilibrium) came to 6.1 nM. This counts as single-digit nanomolar.
For the compound `CCC(=O)N[C@H]1CC[C@@H](n2c(=O)c(C)cc3cnc(Nc4ccc(N5CCN(C)CC5)cc4OC)nc32)CC1`, binding in [1] was put at a Kd of 0.29 nM.
Still for that read-out and setting: under `COc1cc(N2CCN(C)CC2)ccc1Nc1ncc2c(C)cc(=O)n([C@H]3CC[C@@H](NC(=O)C(C)C)CC3)c2n1` stands 0.5 nM.
The same measure, in the same setting: next, `COc1cc(N2CCN(C)CC2)ccc1Nc1ncc2c(C)cc(=O)n([C@H]3CC[C@@H](NC(=O)C4CC4)CC3)c2n1`: 0.41 nM.
`CCC(=O)N[C@H]1CC[C@@H](n2c(=O)cc(C)c3cnc(Nc4ccc(N5CCN(C)CC5)cc4C)nc32)CC1` yielded a Kd in series [1] of 0.63 nM.
Same read-out and setting: under `COc1cc(N2CCN(C)CC2)ccc1Nc1ncc2c(C)cc(=O)n([C@H]3CC[C@@H](NC(=O)C45CC6CC(CC(C6)C4)C5)CC3)c2n1` stands 0.56 nM.
Turning to `COc1cc(N2CCN(C)CC2)ccc1Nc1ncc2c(C)cc(=O)n([C@H]3CC[C@@H](NC(=O)C4CCCC4)CC3)c2n1`, the Kd in series [1] was determined as 0.12 nM. Moreover, the IC50 – broadly, the concentration needed to halve the response being measured – in series [2] is 19 nM.
`CCC(=O)N1CCC[C@@H](n2c(=O)cc(C)c3cnc(Nc4ccc(N5CCN(C)CC5)cc4OC)nc32)C1` showed a Kd in series [1] of 250 nM.
As for `COc1cc(N2CCN(C)CC2)ccc1Nc1ncc2cc(C)c(=O)n([C@H]3CC[C@@H](NC(=O)C4CCCCC4)CC3)c2n1`, the Kd in series [1] came to 0.17 nM. The AUC(0-inf) (as a rule, total exposure, with the tail of the curve extrapolated) in series [3] is 15500 ng·h/mL; in series [5] it was 33300 ng·h/mL. Also, the Cmax (in general, the maximum level reached in the sampled fluid or tissue) in series [4] is 2300 ng/mL; in series [9], 4740 ng/mL. For the same compound, the values for the half-life in series [6] and in series [8] were 7.62 h and 6.2 h, respectively. In addition, the bioavailability (usually the share of a dose that reaches the circulation, judged against a reference dose that is usually intravenous) in series [7] came out at 39.6%. In addition, the clearance (usually the rate of elimination divided by the concentration) in series [10] was 5.61 mL/min/kg. The IC50 in series [2] was determined as 20 nM.
As for `CCC(=O)N1CCC[C@H](n2c(=O)cc(C)c3cnc(Nc4ccc(N5CCN(C)CC5)cc4OC)nc32)C1`, the Kd in series [1] was found to be 200 nM. This counts as sub-micromolar.
On to `CCC(=O)N[C@H]1CC[C@@H](n2c(=O)cc(C3CC3)c3cnc(Nc4ccc(N5CCN(C)CC5)cc4OC)nc32)CC1`, for which the Kd in series [1] was determined as 7.9 nM. Further, the half-maximal inhibitory concentration (IC50) in series [2] worked out at 50 nM.
In series [1], `CCC(=O)N[C@H]1CC[C@@H](n2c(=O)cc(-c3ccccc3)c3cnc(Nc4ccc(N5CCN(C)CC5)cc4OC)nc32)CC1` came in with a Kd of 825 nM. This lies in the sub-micromolar range.
In turn, `COc1cc(N2CCN(C)CC2)ccc1Nc1ncc2c(C)cc(=O)n([C@H]3CC[C@@H](NC(C)=O)CC3)c2n1` registered a Kd in [1] of 0.72 nM.
On the same count and under the same terms, under `CCC(=O)N[C@H]1CC[C@@H](n2c(=O)cc(C)c3cnc(Nc4ccc(N5CCN(C)CC5)c(C)c4)nc32)CC1` stands 3.9 nM.
Same read-out and setting: under `CCC(=O)N1CC[C@H](n2c(=O)cc(C)c3cnc(Nc4ccc(N5CCN(C)CC5)cc4OC)nc32)C1` stands 145 nM; under `C=CC(=O)N1CC[C@H](n2c(=O)cc(C)c3cnc(Nc4ccc(N5CCN(C)CC5)cc4OC)nc32)C1`, 190 nM.
On the same count and under the same terms, under `CCC(=O)N[C@H]1CC[C@H](n2c(=O)cc(C)c3cnc(Nc4ccc(N5CCN(C)CC5)cc4OC)nc32)CC1` stands 2.8 nM.
With `CCC(=O)N1CCC(n2c(=O)cc(C)c3cnc(Nc4ccc(N5CCN(C)CC5)cc4OC)nc32)CC1`, the Kd in [1] stood at 9.3 nM.
Same read-out and setting: under `CCC(=O)N[C@H]1CC[C@@H](n2c(=O)cc(CC)c3cnc(Nc4ccc(N5CCN(C)CC5)cc4OC)nc32)CC1` stands 1.5 nM.
Turning to `COc1cc(N2CCN(C)CC2)ccc1Nc1ncc2cc(C)c(=O)n([C@H]3CC[C@@H](NC(=O)C4CCCC4)CC3)c2n1`, in series [1], binding was characterised by a dissociation constant (Kd) of 0.17 nM. In addition, the IC50 in series [2] worked out at 11 nM.
The compound `COc1cc(N2CCN(C)CC2)ccc1Nc1ncc2c(C)cc(=O)n([C@H]3CC[C@@H](NC(=O)c4cccc5ccccc45)CC3)c2n1` displayed a Kd in series [1] of 1.1 nM.
On the same count and under the same terms, next, `CCC(=O)N1CC(n2c(=O)cc(C)c3cnc(Nc4ccc(N5CCN(C)CC5)cc4OC)nc32)C1`: above 1000 nM; `CCC(=O)N1CC[C@@H](n2c(=O)cc(C)c3cnc(Nc4ccc(N5CCN(C)CC5)cc4OC)nc32)C1`: 310 nM.
On the same count and under the same terms, next, `CCC(=O)N[C@H]1CC[C@@H](n2c(=O)cc(C)c3cnc(Nc4ccc(N5CCN(C)CC5)cc4OC)nc32)CC1`: 0.71 nM; `COc1cc(N2CCN(C)CC2)ccc1Nc1ncc2c(C)cc(=O)n([C@H]3CC[C@@H](NC(=O)c4ccccc4)CC3)c2n1`: 0.3 nM.
